Laboratory results taken from the CheMixHub viscosity set.

Experiment: xn = mol fraction of the nth substance listed

C1COCO1 + C1CCCCC1
viscosity [mPa·s], 101.3 kPa
Conditions | x2 = 0.0994 | x2 = 0.1978 | x2 = 0.3014 | x2 = 0.3991 | x2 = 0.4961 | x2 = 0.5974 | x2 = 0.6998 | x2 = 0.8012 | x2 = 0.8994
298.15 K | 0.5886 | 0.593 | 0.6047 | 0.6199 | 0.6405 | 0.6642 | 0.6971 | 0.7404 | 0.8026
313.15 K | 0.4948 | 0.4959 | 0.5024 | 0.5119 | 0.5256 | 0.5441 | 0.5653 | 0.5967 | 0.6392

CCCCCCCCC + C1CCCCC1
viscosity [mPa·s], 101.33 kPa
Conditions | 298.15 K | 303.15 K | 308.15 K
x2 = 0.106 | 0.658 | 0.617 | 0.576
x2 = 0.1286 | 0.6708 | – | –
x2 = 0.1999 | 0.664 | 0.623 | 0.582
x2 = 0.2414 | 0.6821 | – | –
x2 = 0.2987 | 0.672 | 0.632 | 0.589
x2 = 0.342 | 0.686 | – | –
x2 = 0.3971 | 0.677 | 0.633 | 0.591
x2 = 0.4371 | 0.7041 | – | –
x2 = 0.4952 | 0.696 | 0.648 | 0.602
x2 = 0.5293 | 0.7089 | – | –
x2 = 0.5978 | 0.708 | 0.659 | 0.616
x2 = 0.6059 | 0.7214 | – | –
x2 = 0.683 | 0.7381 | – | –
x2 = 0.6994 | 0.73 | 0.679 | 0.631
x2 = 0.7423 | 0.7545 | – | –
x2 = 0.7989 | 0.762 | 0.706 | 0.658
x2 = 0.8068 | 0.7761 | – | –
x2 = 0.873 | 0.8053 | – | –
x2 = 0.8991 | 0.805 | 0.743 | 0.687
x2 = 0.9395 | 0.8376 | – | –
x2 = 0.9769 | 0.881 | – | –

Cc1cccc(C)n1 + C1CCCCC1
viscosity [mPa·s], 101 kPa
Conditions | x1 = 0.104 | x1 = 0.198 | x1 = 0.306 | x1 = 0.4003 | x1 = 0.503 | x1 = 0.6001 | x1 = 0.705 | x1 = 0.799 | x1 = 0.898
303 K | 0.727 | 0.6904 | 0.67 | 0.6636 | 0.6619 | 0.6624 | 0.6771 | 0.6933 | 0.7297
313 K | 0.6341 | 0.6026 | 0.5879 | 0.58 | 0.5789 | 0.5888 | 0.601 | 0.615 | 0.6426
323 K | 0.5572 | 0.5372 | 0.5288 | 0.5212 | 0.5181 | 0.5208 | 0.5361 | 0.5491 | 0.5758

O=S(Cl)Cl + C1CCCCC1
298.15 K, 101 kPa
Conditions | viscosity [mPa·s]
x1 = 0.272 | 0.7201
x1 = 0.466 | 0.6634
x1 = 0.806 | 0.6183
x1 = 0.937 | 0.6156

C1COCO1 + C1CCOC1
298.15 K, 101 kPa
Conditions | viscosity [mPa·s]
x2 = 0.1025 | 0.5975
x2 = 0.2043 | 0.5993
x2 = 0.3057 | 0.5923
x2 = 0.4065 | 0.5804
x2 = 0.5067 | 0.5634
x2 = 0.6065 | 0.5438
x2 = 0.7056 | 0.5224
x2 = 0.8043 | 0.501
x2 = 0.9024 | 0.4802

ClC(Cl)C(Cl)(Cl)Cl + C1COCCO1
303.15 K, 101 kPa
Conditions | viscosity [mPa·s]
x2 = 0.0967 | 2.052
x2 = 0.1938 | 2.133
x2 = 0.2925 | 2.141
x2 = 0.3925 | 2.108
x2 = 0.4926 | 2.011
x2 = 0.5951 | 1.851
x2 = 0.6928 | 1.65
x2 = 0.795 | 1.463
x2 = 0.8962 | 1.289
